Like-named read-outs stand apart in the source and are kept apart here.
How the values were obtained:
human GLP-1R receptor = biological target: T1, human GLP-1R receptor (Homo sapiens, UniProt P43220); assay: GLP-1R cAMP assay (HTRF, HEK293 cells expressing GLP-1R); format: cell-based; conditions: agonistic activity, GLP-1R HEK293 cells
T1 construct: expressed in transfected cells; host or cells: 'GLP-1R cells' (frozen vial)
Procedure: Test Embodiment 1: Activity Test of GLP-1R cAMP Assay
This experiment aims to verify the agonistic activity of the compound of the present disclosure on human GLP-1R receptor.
Compounds were diluted 4-fold starting at 100 μM from DMSO using Bravo for a total of 10 points.
The reference compound polypeptide GLP-1 (7-37) was diluted 4-fold starting from 500 nM in DMSO using Bravo for a total of 10 points.
b) Preparation of Cell Suspension: • 1) 1 vial of GLP-1R cells was quickly thawed in a 37° C. water bath. • 2) The suspension of the cells was transferred to 10 mL of HBSS in a 15 mL conical tube. • 3) The cells were centrifuged at 1000 rpm for 5 min at room temperature to precipitate the cells. • 4) The supernatant was gently aspirated, and being careful not to aspirate the cells. • 5) The cells were relaxed by flicking the precipitation, and then the cell precipitation was re-suspended in 10 mL of HBSS. A sterile pipette was used to move fluid up and down to remove clumps. • 6) The concentration of cells was counted and the cell viability on Vi-cell was determined. • 7) GLP-1R cells were re-suspended in the test buffer at a concentration of 2.0×E5/mL cells. • 8) 10 μL of GLP-1R cell was transferred to OptiPlate-384 well plate.
c) Transfer of Compound: • 1) 100 nL of compound was transferred to OptiPlate-384 plate using Echo Transfer. • 2) The plate was rotated at 1000 rpm for 5 seconds.
d) HTRF cAMP Analysis of Agonists: • 1) The plate was incubated at room temperature for 30 minutes before adding detection reagents. • 2) An electric multi-channel pipette was used to add 10 μL of detection reagents respectively. • 3) The 384 well plate was covered with TopSeal-A membrane and incubated for 60 min at room temperature.
TopSeal-A was unloaded and read on EnVision.

[1] = Pharmacokinetic evaluation in rats (gavage); format: in vivo; conditions: rat, 10 mg/kg single oral gavage, plasma
Procedure: Test Embodiment 2: Pharmacokinetic Evaluation in Rats
The drug concentrations in the plasma of rats were tested at different times after the administration of the compounds by gavage using rats as test animals. The pharmacokinetic behavior of the compounds of the present disclosure in rats was studied and their pharmacokinetic characteristics were evaluated. In each group of embodiments, 3 rats with similar body weight were selected and administered orally at a dose of 10 mg/kg for a single administration. Blood was collected from animals at 15 min, 30 min, 1 h, 2 h, 4 h, 6 h, 8 h, 12 h, 24 h time points after administration. The LC-MS/MS analysis method was used to detect the content of the compound in plasma, and the lower limit of quantification of the method was 20 ng/mL. Concentration data in plasma was counted using the metabolic kinetic data analysis software WinNonlin 7.0, and the pharmacokinetic parameters were calculated using the non-compartmental analysis (NCA), as shown in Table 2 below.
Drug configuration: A certain amount of drug was taken, added with 2% Klucel LF+0.1% Tween 80 aqueous solution to prepare a clear solution or a uniform suspension.
Administration: Rats were administered by gavage after overnight fasting at a dose of 10 mg/kg.
Operation: Rats were administered by gavage, and blood was collected from the tail vein before administration and 15 min, 30 min, 1 h, 2 h, 4 h, 6 h, 8 h, 12 h, 24 h after administration, placed in heparinized sample tubes, centrifuged at 4° C., 3500 rpm for 10 min to separate plasma, stored at −20° C., and fed 2 hours after administration.
Determination of the content of test compounds in rat plasma after drug administration by gavage: 50 μL of plasma samples were thawed at room temperature, added with 130 μL of internal standard working solution (1000 ng/mL, acetonitrile, tolbutamide), vortexed for about 1 min and then centrifuged for 10 min at 4° C. and 13000 rpm. 50 μL of supernatant was mixed with 100 μL of 50% acetonitrile in water, and then the sample was injected for LC/MS/MS analysis.

[2] = Pharmacokinetic evaluation of cynomolgus monkey (IV and oral); format: in vivo, cynomolgus monkeys; conditions: for AUC(0-t): read-out: AUC0-24 h
Procedure: Test Embodiment 3: Pharmacokinetic Evaluation of Cynomolgus Monkey
The drug concentrations in the plasma of cynomolgus monkeys were tested at different times after intravenous injection and oral administration of the compounds using cynomolgus monkeys as test animals. The pharmacokinetic behavior of the compounds of the present disclosure in cynomolgus monkeys was studied and their pharmacokinetic characteristics were evaluated. In each group of embodiments, 2 cynomolgus monkeys with similar body weight were selected, administered at a dose of 1 mg/kg by intravenous injection and at a dose of 50 mg/kg by oral administration for a single administration.
Age of cynomolgus monkeys at the time of administration: about 2-4 years old; body weight: 3.0-4.6 kg at the beginning of administration; 4 monkeys; sex: male.
Intravenous group: The final concentration of 0.5 mg/mL was prepared for intravenous administration, and the preparation solvent was 5% DMSO+45% PEG400+50% water, and the preparation was in a clarified solution.
Oral group: The final concentration of 10 mg/mL was prepared for oral administration, and the preparation solvent was 5% DMSO+45% PEG400+50% water, and the preparation was in homogeneous suspension.
Blood was collected from animals at 5 min, 15 min, 30 min, 1 h, 2 h, 4 h, 7 h, 12 h, 24 h time points after administration. The LC-MS/MS analysis method was used to detect the content of the compound in plasma, and the lower limit of quantification of the method was 20 ng/mL. Concentration data in plasma was counted using the metabolic kinetic data analysis software WinNonlin 7.0, and the pharmacokinetic parameters were calculated using the non-compartmental analysis (NCA), as shown in Table 3 below.
Determination of the content of test compounds in the plasma of cynomolgus monkeys after drug administration: After blood samples were collected, placed in a marked ice-bath centrifuge tube, and rapidly centrifuged to separate the plasma. Centrifugation conditions: 4000 rpm, 10 minutes, 4° C., and plasma was stored at −40° C. or less for testing.

[3] = obese patients, cited from earlier work

T1 sequence (P43220 24-463): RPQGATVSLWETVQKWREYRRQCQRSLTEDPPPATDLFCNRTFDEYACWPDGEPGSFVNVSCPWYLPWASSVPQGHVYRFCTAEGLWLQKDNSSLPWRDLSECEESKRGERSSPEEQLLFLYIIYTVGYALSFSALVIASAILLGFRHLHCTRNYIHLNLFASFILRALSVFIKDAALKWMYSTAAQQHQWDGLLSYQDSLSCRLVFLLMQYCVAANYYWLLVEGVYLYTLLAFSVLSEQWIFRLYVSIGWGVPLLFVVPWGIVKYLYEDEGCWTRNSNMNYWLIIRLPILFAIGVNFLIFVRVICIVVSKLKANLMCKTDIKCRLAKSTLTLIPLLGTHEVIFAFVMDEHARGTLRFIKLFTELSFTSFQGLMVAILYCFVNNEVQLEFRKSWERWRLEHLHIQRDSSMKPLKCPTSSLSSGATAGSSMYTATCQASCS

Compound	EC50 (human GLP-1R receptor)	AUC(0-inf) [1]	Cmax [1]	Tmax [1]	half-life [1]	F ([2]; 50 mg/kg PO vs 1 mg/kg IV, oral bioavailability)	Cmax ([2]; male, 1 mg/kg IV, plasma)	Tmax ([2]; male, 1 mg/kg IV, plasma)	clearance ([2]; male, 1 mg/kg IV, plasma)	half-life ([2]; male, 1 mg/kg IV, plasma)	AUC(0-t) ([2]; male, 1 mg/kg IV, plasma)	Cmax ([2]; male, 50 mg/kg PO, plasma)	Tmax ([2]; male, 50 mg/kg PO, plasma)	half-life ([2]; male, 50 mg/kg PO, plasma)	concentration at 24 h ([2]; male, 50 mg/kg PO, plasma, 24 h, read-out: C24 h)	AUC(0-t) ([2]; male, 50 mg/kg PO, plasma)	patients with ≥5% weight loss ([3]; 2.4 mg group, 68 weeks)	decrease of mean baseline body weight ([3]; 2.4 mg, 68 weeks of treatment, baseline 105.3 kg)
O=C(O)c1ccc2nc(CN3CCC(c4ccccc4OCc4ccc(Cl)cc4F)CC3)n(C[C@@H]3CCO3)c2c1 [Compound 3]	0.9 nM	1030 ng·h/mL	1160 ng/mL	0.25 h	2.58 h	51.2%	1590 ng/mL	0.083 h	19.2 mL/min/kg	0.98 h	898 ng·h/mL	2440 ng/mL	2.5 h	22.6 h	597 ng/mL	23000 ng·h/mL		
semaglutide																	86.4%	14.9%

Reference: patent publication US11773087B2, “GLP-1R receptor agonist compound and use thereof” (SUZHOU VINCENTAGE PHARMA CO., LTD, priority 2020, dated 2023)
